{
  "source": "patent US8440634B2",
  "about": "“Bicyclic derivatives of morphine-6-glucuronide, preparation method thereof and use of same in therapeutics” (Sanofi, priority 2008, dated 2013)",
  "key": {"[1]": {"test_system": "nociceptive reflex response (tail removal caused by painful heat stimulus)", "assay": "\"Tail-Flick\" test, analgesic activity", "assay_type": "in vivo, male Swiss mice", "settings": "mice", "protocol": "Tests consisting in measuring the in vivo activity of the compounds of the invention on a nociceptive reflex response were performed. In this approach, the latency of the animal's nociceptive reflex response is measured as a pain indicator.\nThe analgesic activity was determined by means of the “tail-flick” test in male Swiss mice (Iffa Credo). This test is based on the spontaneous nociceptive reflex of removal of the animal's tail caused by a painful heat stimulus (infrared source). The “tail-flick” test (D'Amour-Smith test, 1941, Pharmacol. Exp. Ther.; 72: 74-79) consists, after administering a product, in placing a mouse's tail at the focal point of the infrared source so as to produce a nociceptive heat stimulus (surface temperature of about 55-60° C.). The mouse's reaction time (RT) (latency between the moment when the light beam is switched on and the moment when the mouse removes its tail) was measured in duplicate at different times ranging from 20 minutes to 120 minutes after administration of the product. The heat intensity is regulated such that this removal reflex is between 0.5 and 3.5 seconds in the control animals, and arbitrarily represents the criterion for minimum analgesia (0%). Two reaction time measurements were taken before administration of the product for each mouse, to establish a baseline measurement time. A maximum time of 8 seconds was chosen as the maximum reaction time so as not to induce tissue damage by burning the animals, and arbitrarily represents the criterion for maximum analgesia (100%). The reaction time is increased by the analgesics relative to a control animal not receiving any treatment. The products were administered subcutaneously and orally at doses of between 1.25 and 30 mg/kg. […]\nThe percentage of analgesic activity (% MPE) is determined by the following formula: %MPE=(RTpost-administration−RTpre-administration)*100/(RTmax−RTpre-administration)."}},
  "data": [
    {"compound": "CN1CC[C@]23c4c5ccc(O)c4O[C@H]2C(O[C@@H]2OC(c4nc6n(n4)CCC(O)N6)[C@@H](O)C(O)C2O)C=CC3[C@H]1C5", "note": "(stereo partly drawn) [morphin-6-yl 5-C-(5-hydroxy-4,5,6,7-tetrahydro[1,2,4]triazolo[1,5-a]pyrimidin-2-yl)-β-D-xylopyranoside]", "values": [
      {"measurement": "ED50", "setting": "[1]; Mus musculus, sc, 1 h, subcutaneous, determined 60 minutes after administration", "result": "< 1.25", "unit": "mg/kg"},
      {"measurement": "duration of the analgesic action", "setting": "[1]; subcutaneous administration", "result": "more than 120 minutes"},
      {"measurement": "maximum percentage of analgesic activity (% MPE max index)", "setting": "[1]; subcutaneous, dose of 1.25 mg/kg", "result": 80, "unit": "%"},
      {"measurement": "melting point", "result": 201, "unit": "°C"}
    ]}
  ]
}
